Test results from patent publication US5093363A, “2,4,6-substituted phenol derivatives” (priority 1989, dated 1992).

What was measured:
[1] = target: T1, HMG-CoA reductase (Rattus norvegicus, UniProt P51639); assay: HMG-CoA reductase inhibitory activity (rat liver microsome); assay type: biochemical, rat (Sprague-Dawley); settings: [3-^14 C]HMG-CoA, 37° C., 30 minutes, read-out: HMG-CoA reductase inhibitory activity IC50 (50% inhibition concentration)
T1 construct: Liver microsomes was prepared by using Sprague-Dawley rats; from tissue; host or cells: liver microsomes of Sprague-Dawley rats fed 2% cholestyramine diet
T1 sequence (P51639 1-887): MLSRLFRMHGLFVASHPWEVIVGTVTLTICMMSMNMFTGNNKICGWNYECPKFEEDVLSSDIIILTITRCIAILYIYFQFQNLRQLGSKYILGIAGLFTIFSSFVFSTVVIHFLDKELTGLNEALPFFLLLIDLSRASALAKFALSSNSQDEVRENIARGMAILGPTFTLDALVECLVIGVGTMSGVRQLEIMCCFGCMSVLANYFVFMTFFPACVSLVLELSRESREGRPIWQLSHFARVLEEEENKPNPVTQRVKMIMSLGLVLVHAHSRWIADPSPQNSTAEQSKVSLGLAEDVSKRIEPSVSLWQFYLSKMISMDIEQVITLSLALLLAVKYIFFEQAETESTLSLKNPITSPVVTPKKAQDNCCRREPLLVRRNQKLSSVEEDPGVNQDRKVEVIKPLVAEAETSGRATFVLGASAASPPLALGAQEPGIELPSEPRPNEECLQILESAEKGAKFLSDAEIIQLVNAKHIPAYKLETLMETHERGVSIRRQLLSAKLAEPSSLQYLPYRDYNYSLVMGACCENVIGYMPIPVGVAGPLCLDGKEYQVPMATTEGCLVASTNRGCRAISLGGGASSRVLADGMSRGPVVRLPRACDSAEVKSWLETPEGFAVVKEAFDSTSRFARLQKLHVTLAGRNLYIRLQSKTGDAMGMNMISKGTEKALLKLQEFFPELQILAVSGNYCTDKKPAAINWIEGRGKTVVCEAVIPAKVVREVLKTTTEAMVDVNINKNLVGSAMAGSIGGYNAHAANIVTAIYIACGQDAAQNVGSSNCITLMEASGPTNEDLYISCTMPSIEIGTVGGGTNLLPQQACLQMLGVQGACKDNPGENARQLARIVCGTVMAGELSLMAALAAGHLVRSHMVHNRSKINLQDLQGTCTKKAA
Experimental: [HMG-CoA reductase inhibitory activity]
(1a) Preparation of rat liver microsome
Liver microsomes was prepared by using Sprague-Dawley rats which freely take a general diet containing 2% cholestyramine and water for 2 weeks according to the report of Kuroda et al (Biochim. Biophys. Acta., 486, page 70, 1977). The microsome fraction obtained by centrifuging at 105000× g was washed with a solution containing 15 mM nicotinamide and 2 mM magnesium chloride (in 100 mM potassium phosphate buffer solution, pH 7.4) once. Then, thereto was added equal parts of the buffer solution containing nicotinamide and magnesium chloride to the weight of used liver. The mixture was homogenized, cooled to -80° C., and preserved.
(1b) Measurement of HMG-CoA reductase inhibitory activity
At 0° C., 100 μl of rat liver microsome preserved at -80° C. was melted and diluted with 0.7 ml of cool potassium phosphate buffer (100 mM, pH 7.4). Thereto was added 0.8 ml of 50 mM EDTA solution (the above-mentioned potassium phosphate buffer solution) and 0.4 ml of 100 mM dithiothreitol solution (the above-mentioned potassium phosphate buffer solution) and the mixture was maintained at 0° C. To 1.675 ml of the microsome solution was added 670 μl of 25 mM NADPH solution (the above-mentioned potassium phosphate buffer solution). […] By means of a scintillation counter, specific activity was measured.

[2] = tested on: cholesterol synthesis; settings: disclosed by Nakatani, Farmashia 1988; cited from earlier work
[3] = tested on: production of peroxidized lipids in a homogenate of rat brain; assay: Suppression of production of peroxidized lipids in a homogenate of rat brain (TBA method); assay type: biochemical, rat (SD strain); settings: 37° C., 30 minutes
Experimental: [Suppression of production of peroxidized lipids in a homogenate of rat brain]
SD strain rats (body weight, about 200 g) were sacrificed by cutting down their heads, and the brains were taken out. The brains were homogenated with a 4-fold amount of 0.05 M phosphate-sodium chloride buffer (pH 7.4) and centrifuged at 1,000× g for 10 minutes. The supernatant was kept at -80° C. for storage.
The supernatant was diluted with a 2-fold amount of the same phosphate-sodium chloride buffer as above, and 0.45 ml of the dilution was combined with 30 μl of ethanol per se (vehicle) or ethanol solution containing a test compound, followed by incubation at 37° C. for 30 minutes. The reaction was terminated by addition of a solution of 0.1% butylhydroxytoluene (BHT) (20 μl) in 25% metaphosphoric acid (125 μl). After deproteinization, the peroxidized lipids in the supernatant were measured by the thiobarbituric acid (TBA) method according to the description by Ohkawa et al.: in Anal. Biochem., Vol. 95, page 351 (1979). The amount of peroxidized lipids produced was compared with that in the vehicle applied group and expressed in % control.

[4] = concentration of test compound 0.01 mM
[5] = concentration of test compound 0.1 mM

SMILES | IC50 [1] [µM] | inhibit cholesterol synthesis [2] | Inhibitory rate (% control) [3, 4] [% control] | Inhibitory rate (% control) [3, 5] [% control]
CC[C@H](C)C(=O)O[C@H]1C[C@@H](C)C=C2C=C[C@H](C)[C@H](CC[C@@H]3C[C@@H](O)CC(=O)O3)[C@H]21 [Lovastatin] | 0.024 | inhibit cholesterol synthesis | – | –
CC[C@H](C)C(=O)O[C@H]1C[C@H](O)C=C2C=C[C@H](C)[C@H](CC[C@@H](O)C[C@@H](O)CC(=O)O)[C@H]21 [Pravastatin] | – | inhibit cholesterol synthesis | – | –
CC(C)(Sc1cc(C(C)(C)C)c(O)c(C(C)(C)C)c1)Sc1cc(C(C)(C)C)c(O)c(C(C)(C)C)c1 [Probucol] | – | – | 27.8 | 58.3
CC(C)(C)c1cc(SC[C@@H](O)C[C@@H](O)CC(=O)O)cc(C(C)(C)C)c1O [Compound No. 3, Sodium (3R,5S)-6-[(3,5-di-tert-butyl-4-hydroxyphenyl)thio]-3,5-dihydroxyhexanoate] | 54 | – | 35.7 | 94.9
CC[C@H](C)C(=O)O[C@H]1CCC=C2C=C[C@H](C)[C@H](CC[C@@H]3C[C@@H](O)CC(=O)O3)[C@H]21 [Mevastatin] | – | inhibit cholesterol synthesis | – | –
CCC(C)(C)C(=O)O[C@H]1C[C@@H](C)C=C2C=C[C@H](C)[C@H](CC[C@@H]3C[C@@H](O)CC(=O)O3)[C@H]21 [Simarastatin] | – | inhibit cholesterol synthesis | – | –
